This note sets out measurements from patent US20230106506A1, “NOVEL PqsR INVERSE AGONISTS” (Helmholtz-Zentrum Fur Infektionsforschung GmbH, priority 2020, published 2023).

The target of data set [1] is T1, PqsR (Pseudomonas aeruginosa, UniProt Q9I4X0).
T1 construct: transfected with pEAL08-2 plasmid encoding pqsR under control of promoter tac; expressed in transfected cells; host or cells: Escherichia coli DH5alpha carrying pEAL08-2
Kind of data set: PqsR reporter gene assay in E. coli (β-galactosidase). Type of data set: cell-based. As to the method:
Inhibition of pqsR-dependent gene expression of test compounds was determined in an E. coli based β-galactosidase reporter gene assay. Escherichia coli DH5α was transfected with pEAL08-2 plasmid encoding pqsR under control of promoter tac and β-galactosidase reporter gene lacZ under control of promoter pqsA. Antagonistic effects of compounds were evaluated in the presence of/in competition to 50 nM PQS. A positive control was used to ensure the reliability of individual assays. First, PQS was diluted in methanol and added to the wells of a glass coated 96-deep-well plate, and the solvent was evaporated. Then, compounds were added in 5 μL DMSO to final concentrations of 0.001-10 μM. Overnight cultures of E. coli DH5a×pEAL08-2 were diluted 1:100 in LB medium with ampicillin (50 μg/ml) and incubated at 37° C. with shaking until it reached an OD600 of 0.2. Finally, 995 μL of culture was added to each well and the β-galactosidase activity was determined by ortho-nitrophenyl-β-galactoside conversion in permeabilized cells after a 2.5 h incubation period (37° C., 180 rpm). OD600, OD420, and OD550 were measured using POLARstar Omega (BMG Labtech, Ortenberg, Germany), and the activity was expressed as ratio of the slope of β-galactosidase activity between basal control (no PQS) and solvent control, IC50 values of antagonists were determined by variation of the concentration of the test compounds.
(In a reporter assay the amount or activity of a reporter protein is the signal.)

Data set [2] concerns P. aeruginosa pyocyanin production. Briefly: Pyocyanin assay. Type of data set: cell-based, P. aeruginosa strain PA14. Particulars: Pseudomonas aeruginosa, PA14, 16 h, read-out: IC50-value towards pyocyanin production. As to the method: Inhibition of P. aeruginosa pyocyanin production by compounds was determined photometrically as described before. In short, an overnight culture of PA14 in PPGAS medium was washed, diluted in medium to a start OD600 of 0.02, and incubated for 16 h (37° C., 200 rpm, relative humidity 75%) in the presence of test compounds. Then, cultures were extracted with chloroform and re-extracted with 0.2 M HCl. Protonated red colored pyocyanin was determined by measuring OD520 and normalizing to OD600.

Data set [3] is described as follows: Kinetic turbidimetric aqueous solubility. The format is physicochemical. The conditions noted are these: aqueous buffer, kinetic from dmso stock; PBS buffer, final DMSO 2%, absorbance 620 nm; read-out: Kinetic Turbidimetric Aqueous Solubility at room temperature for 5 min. The method, then: Kinetic Turbidimetric Aqueous Solubility at room temperature for 5 min. […] Data was analyzed by fitting a four parameter sigmoidal function to the measured and normalized absorbances and AUC calculation providing access to Log S (decadic logarithm of the solubility).

Data set [4] can be described thus: Metabolic stability in mouse liver microsomes (MLM). The format is in vitro ADME. Particulars: 1 μM compound, 0.5 mg/mL MLM, 1 mM NADPH, 37° C., read-out: half-life (t1/2) towards MLM. As to the method: For the evaluation of phase I metabolic stability, the compound (1 μM) was incubated with 0.5 mg/mL MLM (Corning) and 1 mM NADPH at 37° C. for 0, 5, 10, 15 and 30 min. The metabolic stability of Verapamil, Diphenhydramine and Benzydamine (1 μM each) were determined in parallel to confirm the enzymatic activity of the MLM. The incubation was stopped by addition of 2 volumes of acetonitrile containing internal standard (1 μM Leucine Enkephaline). Samples were centrifuged (15 min, 3,500 rpm). Concentration of the remaining test compound at the different time points was analyzed by HPLC-MS/MS and used to determine half-life (t1/2).
(In general: Liver microsomes are vesicles of endoplasmic reticulum, rich in cytochrome P450 enzymes.)

Bounds are passed on as bounds.

T1 sequence (Q9I4X0 whole entry): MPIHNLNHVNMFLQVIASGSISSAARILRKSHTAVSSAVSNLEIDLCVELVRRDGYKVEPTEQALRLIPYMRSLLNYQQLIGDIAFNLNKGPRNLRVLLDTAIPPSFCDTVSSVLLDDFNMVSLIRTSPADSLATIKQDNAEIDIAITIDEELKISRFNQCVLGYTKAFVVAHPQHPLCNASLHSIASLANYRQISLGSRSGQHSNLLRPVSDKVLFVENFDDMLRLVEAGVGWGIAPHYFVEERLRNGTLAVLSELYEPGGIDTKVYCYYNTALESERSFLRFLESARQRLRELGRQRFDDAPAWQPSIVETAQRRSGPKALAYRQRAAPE

Turning to `CC(C)Oc1ccc(-c2ncc(CNc3cc(-n4cncn4)nc(C(F)(F)F)c3)s2)cc1` [Compound 17, N-((2-(4-Isopropoxyphenyl)thiazol-5-yl)methyl)-2-(1H-1,2,4-triazol-1-yl)-6-(trifluoromethyl)pyridin-4-amine], the concentration for half-maximal inhibition (IC50) in data set [1] was 0.051 to 0.25 µM; in data set [2] it was not above 0.1 µM. Further, the solubility at 5 min in data set [3] is more than 50 µM. Moreover, the half-life at 1 µM in data set [4] was 1.02 to 1.67 h.

As to `CC(C)Oc1ccc(-c2ncc(CNc3cc(-c4cc[nH]n4)nc(C(F)(F)F)c3)s2)cc1` [Compound 14, N-((2-(4-Isopropoxyphenyl)thiazol-5-yl)methyl)-2-(1H-pyrazol-3-yl)-6-(trifluoromethyl)pyridin-4-amine], the values for the IC50 in data set [1] and in data set [2] were 0.051 to 0.25 µM and 0.201 to 0.5 µM, respectively. In data set [3], the solubility at 5 min is more than 10 µM. Further, the half-life at 1 µM in data set [4] was more than 1.67 h.

On to `CC(C)Oc1ccc(-c2ncc(CNc3cc(-c4cn[nH]c4)nc(C(F)(F)F)c3)s2)cc1` [Compound 11, N-((2-(4-Isopropoxyphenyl)thiazol-5-yl)methyl)-2-(1H-pyrazol-4-yl)-6-(trifluoromethyl)pyridin-4-amine], for which the IC50 in data set [1] was not above 0.05 µM; in data set [2], not above 0.1 µM. In addition, the solubility at 5 min in data set [3] is more than 10 µM. Also, the half-life at 1 µM in data set [4] fell in the range of 0.5 to 1 h.

Take `FC(F)(F)c1cc(SCc2nc3cc(Oc4ccccc4)ccc3[nH]2)cc(-n2cncn2)n1` [Compound 66, 2-(((2-(1H-1,2,4-Triazol-1-yl)-6-(trifluoromethyl)pyridin-4-yl)thio)methy)-5-phenoxy-1H-benzo[d]imidazole]: the figures for the IC50 in data set [1] and in data set [2] were not above 0.05 µM and 0.101 to 0.2 µM, respectively. In data set [3], the solubility at 5 min is more than 10 µM.

`CC(C)Oc1ccc(-c2ncc(CNc3cc(-n4ccnc4)nc(C(F)(F)F)c3)s2)cc1` [Compound 15, 2-(1H-Imidazol-1-yl)-N-((2-(4-isopropoxyphenyl)thiazol-5-yl)methyl)-6-(trifluoromethyl)pyridin-4-amine]: the values for the IC50 in data set [1] and in data set [2] were not above 0.05 µM and not above 0.1 µM, respectively. The solubility at 5 min in data set [3] was more than 10 µM. Also, in data set [4], the half-life at 1 µM is 0.5 to 1 h.

As for `CC(C)Oc1ccc(-c2ncc(CNc3cc(-n4ccnc4)nc(C(F)(F)F)c3)s2)cc1Cl` [Compound 16, N-((2-(3-Chloro-4-isopropoxyphenyl)thiazol-5-yl)methyl)-2-(1H-imidazol-1-yl)-6-(trifluoromethyl)pyridin-4-amine], the results for the half-inhibitory concentration (IC50) in data set [1] and in data set [2] were 0.051 to 0.25 µM and 0.101 to 0.2 µM, respectively. For the same compound, the half-life at 1 µM in data set [4] is more than 1.67 h.

Take `CC(C)Oc1ccc(-c2ncc(CNc3cc(-n4cncn4)nc(C(F)(F)F)c3)s2)cc1Cl` [Compound 18, N-((2-(3-Chloro-4-isopropoxyphenyl)thiazol-5-yl)methyl)-2-(7H-1,2,4-triazol-1-yl)-6-(trifluoromethyl)pyridin-4-amine]: the IC50 is not above 0.05 µM in data set [1] and not above 0.1 µM in data set [2]. Besides, the half-life at 1 µM in data set [4] is more than 1.67 h.

For `FC(F)(F)c1cc(NCc2cn(-c3ccc(Oc4ccccc4)cc3)nn2)cc(-n2ccnc2)n1` [Compound 02, 2-(1H-Imidazol-1-yl)-N-((1-(4-phenoxyphenyl)-1H-1,2,3-triazol-4-yl)methyl)-6-(trifluoromethyl)pyridin-4-amine], the IC50 in data set [1] was not above 0.05 µM; in data set [2] it was 0.201 to 0.5 µM. Moreover, the solubility at 5 min in data set [3] is more than 25 µM.

For `CC(C)Oc1ccc(-n2cc(CNc3cc(Cl)nc(-c4cn[nH]c4)c3)nn2)cc1Cl` [Compound 08, 2-Chloro-N-((1-(3-chloro-4-isopropoxyphenyl)-1H-1,2,3-triazol-4-yl)methyl)-6-(1H-pyrazol-4-yl)pyridin-4-amine], the 50% inhibitory concentration (IC50) in data set [1] was not above 0.05 µM; in data set [2], 0.201 to 0.5 µM. Besides, in data set [3], the solubility at 5 min was more than 25 µM.

As for `CC(C)Oc1ccc(-c2ncc(CNc3cc(-c4cnn(C)c4)nc(C(F)(F)F)c3)s2)cc1` [Compound 13, N-((2-(4-Isopropoxyphenyl)thiazol-5-yl)methyl)-2-(1-methyl-1H-pyrazol-4-yl)-6-(trifluoromethyl)pyridin-4-amine], the results for the IC50 in data set [1] and in data set [2] were 0.051 to 0.25 µM and 0.201 to 0.5 µM, respectively. The solubility at 5 min in data set [3] is more than 10 µM. In data set [4], the half-life at 1 µM is 0.5 to 1 h.

Turning to `FC(F)(F)c1cc(NCc2cn(-c3ccc(Oc4ccccc4)cc3)nn2)cc(-n2cncn2)n1` [Compound 03, N-((1-(4-Phenoxyphenyl)-1H-1,2,3-triazol-4-yl)methyl)-2-(1H-1,2,4-triazol-1-yl)-6-(trifluoromethyl)pyridin-4-amine], the values for the IC50 in data set [1] and in data set [2] were not above 0.05 µM and 0.201 to 0.5 µM, respectively. In addition, in data set [3], the solubility at 5 min is more than 25 µM. The half-life at 1 µM in data set [4] was in the range of 1.02 to 1.67 h.

Take `CC(C)Oc1ccc(-n2cc(CNc3cc(C#N)nc(-c4cn[nH]c4)c3)nn2)cc1Cl` [Compound 09, 4-(((1-(3-Chloro-4-isopropoxyphenyl)-1H-1,2,3-triazol-4-yl)methyl)amino)-6-(1H-pyrazol-4-yl)picolinonitrile]: the IC50 in data set [1] was not above 0.05 µM; in data set [2], 0.201 to 0.5 µM. Also, the solubility at 5 min in data set [3] is more than 10 µM.

With `FC(F)(F)c1cc(NCc2cn(-c3ccc(Oc4ccccc4)cc3)nn2)cc(-c2cn[nH]c2)n1` [Compound 01], the IC50 fell in the range of 0.051 to 0.25 µM in data set [1] and 0.101 to 0.2 µM in data set [2]. Moreover, the solubility at 5 min in data set [3] was more than 25 µM.

For the compound `Cn1cc(-c2cc(SCc3nc4cc(Oc5ccccc5)ccc4[nH]3)cc(C(F)(F)F)n2)cn1` [Compound 65, 2-(((2-(1-Methyl-1H-pyrazol-4-yl)-6-(trifluoromethyl)pyridin-4-yl)thio)methyl)-5-phenoxy-1H-benzo[d]imidazole], the 50% inhibitory concentration (IC50) in data set [1] is 0.051 to 0.25 µM. In data set [3], the solubility at 5 min is more than 10 µM.

For `CC(C)Oc1ccc(-n2cc(CNc3cc(-c4cccnc4)nc(C(F)(F)F)c3)nn2)cc1Cl` [Compound 67, N-((1-(3-Chloro-4-isopropoxyphenyl)-1H-1,2,3-triazol-4-yl)methyl)-6-(trifluoromethyl)-[2,3′-bipyridin]-4-amine], the half-maximal inhibitory concentration (IC50) in data set [1] lay within 0.051 to 0.25 µM.

Regarding `CC(C)Oc1ccc(-c2ncc(CNc3cc(C#N)nc(-c4cn[nH]c4)c3)s2)cc1` [Compound 12, 4-(((2-(4-Isopropoxyphenyl)thiazol-5 yl)methyl)amino)-6-(1H-pyrazol-4-yl)picolinonitrile], the IC50 was not above 0.05 µM in data set [1] and not above 0.1 µM in data set [2]. Further, in data set [3], the solubility at 5 min was more than 10 µM. Further, the half-life at 1 µM in data set [4] is 0.5 to 1 h.

Take `CC(C)Oc1ccc(-c2ncc(CNc3cc(-c4cn[nH]c4)nc(C(F)(F)F)c3)cn2)cc1Cl` [Compound 48, N-((2-(3-Chloro-4-isopropoxyphenyl)pyrimidin-5-yl)methyl)-2-(1H-pyrazol-4-yl)-6-(trifluoromethyl)pyridin-4-amine]: the IC50 in data set [1] is not above 0.05 µM; in data set [2], 0.101 to 0.2 µM. Moreover, in data set [3], the solubility at 5 min is more than 25 µM. Moreover, the half-life at 1 µM in data set [4] is more than 1.67 h.

As for `CC(C)Oc1ccc(-n2cc(CNc3cc(-c4cn[nH]c4)nc(C(F)(F)F)c3)nn2)cc1Cl` [Compound 07, N-((1-(3-Chloro-4-isopropoxyphenyl)-1H-1,2,3-triazol-4-yl)methyl)-2-(1H-pyrazol-4-yl)-6-(trifluoromethyl)pyridin-4-amine], the half-maximal inhibitory concentration (IC50) in data set [1] was not above 0.05 µM; in data set [2], not above 0.1 µM. For the same compound, the solubility at 5 min in data set [3] is more than 25 µM. Further, the half-life at 1 µM in data set [4] fell in the range of 0.5 to 1 h.

With `CC(C)Oc1ccc(-c2ncc(CNc3cc(-c4cn[nH]c4)nc(C(F)(F)F)c3)cn2)cc1` [Compound 28, N-((2-(4-Isopropoxyphenyl)pyrimidin-5-yl)methyl)-2-(1H-pyrazol-4-yl)-6-(trifluoromethyl)pyridin-4-amine], the IC50 in data set [2] was not above 0.1 µM. Besides, the solubility at 5 min in data set [3] is more than 25 µM. The half-life at 1 µM in data set [4] lay within 1.02 to 1.67 h.

One may read the IC50 as the concentration that inhibits the measured activity by half. Broadly, the solubility is the dissolved amount per volume that the medium holds.
